“Also recorded” adds a separate entry of the source. Where two headings read alike, the source gives them in different places.
Columns and labels:
Type in all cases: physicochemical
[1] = Hygroscopicity on storage at controlled temperature and relative humidity
Description: The four crystalline salts were tested in order to determine their ease of handling, hygroscopicity, and thermal stability. The hydrochloride and phosphate salts have the advantage of improved handling properties over the free base glass/gum by virtue of their crystallinity. […] Both salts deliquesced on overnight storage at 40° C. in an environment having 75% relative humidity.
The mesylate and sulphate salts have the advantage of improved handling properties over the free base gum by virtue of their crystallinity. […] The mesylate salt deliquesced following storage for 3 days at 40° C. in an environment having 75% relative humidity. The sulphate salt was unchanged after storage for 7 days at 40° C. in an environment having 75% relative humidity.

[2] = Stability during long term storage, assessed by HPLC; settings: GMP-type packaging with desiccant
Description: Purity analysis was performed on an Agilent HP1100 series system equipped with a diode array detector and using ChemStation software vB.02.01-SR1 using the method detailed below.
(§1) (3S)-Tetrahydrofuran-3-yl (4S)-4-isopropyl-1,4,6,7-tetrahydro-5H-imidazo[4,5-c]-pyridine-5-carboxylate mesylate was also assessed for stability and hygroscopicity when dispensed in 3 g aliquots in double LDPE liners, sealed with cable tie and placed, with a desiccant pouch into a foil bag, which was subsequently heat-sealed. The foil bag was then placed into an HDPE keg fitted with an HDPE lid. These conditions mirror typical GMP level storage conditions. Stability was assessed by HPLC and hygroscopicity was assessed by Karl Fisher (KF) titration.

[3] = Hygroscopicity during long term storage, assessed by Karl Fisher (KF) titration; settings: GMP-type packaging with desiccant
Description: The water content of each sample was measured on a Mettler Toledo DL39 Coulometer using Hydranal Coulomat AG reagent and an argon purge. Weighed solid samples were introduced into the vessel on a platinum TGA pan which was connected to a subaseal to avoid water ingress. Approx 10 mg of sample was used per titration and duplicate determinations were made.
as §1

[4] = overnight storage at 40° C., 75% relative humidity
[5] = after 6 months at 40° C./75% RH

Question: For `CC(C)[C@H]1c2[nH]cnc2CCN1C(=O)O[C@H]1CCOC1` [Free base, (3S)-Tetrahydrofuran-3-yl (4S)-4-isopropyl-1,4,6,7-tetrahydro-5H-imidazo[4,5-c]pyridine-5-carboxylate], which “Hygroscopicity (in words)” value [1] is on record?
Answer: hygroscopic

Question: What does the source list for `CC(C)[C@H]1c2nc[nH]c2CCN1C(=O)O[C@H]1CCOC1.Cl` [Hydrochloride salt, (3S)-Tetrahydrofuran-3-yl (4S)-4-isopropyl-1,4,6,7-tetrahydro-5H-imidazo[4,5-c]-pyridine-5-carboxylate hydrochloride]?
Answer: Hygroscopicity (in words) ([1]; hydrochloride): somewhat hygroscopic; also recorded: highly hygroscopic; Hygroscopicity [1, 4]: deliquesced

Question: What does the source list for `CC(C)[C@H]1c2nc[nH]c2CCN1C(=O)O[C@H]1CCOC1.CS(=O)(=O)O` [Mesylate salt, (3S)-Tetrahydrofuran-3-yl (4S)-4-isopropyl-1,4,6,7-tetrahydro-5H-imidazo[4,5-c]-pyridine-5-carboxylate mesylate]?
Answer: Degradation (HPLC) [2, 5]: 0.1%; Degradation (HPLC) ([2]; over 3 years at 25° C./60% RH): 0.1%; Hygroscopicity ([1]; 40° C./75% RH after 3 days, listed as mesylate salt, mesylate): deliquesced; Water uptake (KF) [3, 5]: 0.1%; Water uptake (KF) ([3]; over 3 years at 25° C./60% RH): no water uptake

Question: Which Hygroscopicity [1, 4] does the source give for `CC(C)[C@H]1c2nc[nH]c2CCN1C(=O)O[C@H]1CCOC1.O=P(O)(O)O` [Phosphate salt, (3S)-Tetrahydrofuran-3-yl (4S)-4-isopropyl-1,4,6,7-tetrahydro-5H-imidazo[4,5-c]-pyridine-5-carboxylate phosphate] here?
Answer: deliquesced

Question: And the “Hygroscopicity (in words)” value ([1]; phosphate)?
Answer: somewhat hygroscopic; also recorded: highly hygroscopic

Question: For `CC(C)[C@H]1c2nc[nH]c2CCN1C(=O)O[C@H]1CCOC1.O.O=S(=O)(O)O` [Sulfate salt (.1.5H2O), (3S)-Tetrahydrofuran-3-yl (4S)-4-isopropyl-1,4,6,7-tetrahydro-5H-imidazo[4,5-c]-pyridine-5-carboxylate sulphate hydrate], which Hygroscopicity ([1]; 40° C./75% RH for up to 7 days, listed as sulphate salt, sulphate hydrate) is on record?
Answer: unchanged

Question: What about the Hygroscopicity ([1]; 40° C./75% RH for up to 7 days, sulphate hydrate) of the same compound?
Answer: No change at 40° C./
